Data as given in patent US20250127857A1, “A COMPOSITION COMPRISING IL-36 AND/OR IL-18 FOR USE IN TREATING OCULAR DISORDERS” (THE PROVOST, FELLOWS, FOUNDATION SCHOLARS, & THE OTHER …, priority 2021, published 2025).

Key:
Type in all cases: cell-based
VEGF = VEGF secretion by primary human foetal RPE (hfRPE) cells; conditions: IL-18 1000 ng/ml, 1-72 hours
Description: FIG. 14 illustrates IL-18 can inhibit VEGF secretion in vivo and in vitro, wherein JR5558 mice at 3 weeks (A) were injected (i.p.) with saline (0 μg/kg) or IL-18 (100 μg/kg) on 4 consecutive days (day 1-4), wherein retinas were isolated on day 8 and VEGF concentration in protein lysates was determined using an appropriate ELISA, wherein data are presented as mean±SEM (n=4-5 animals per each treatment group) and expressed as pg of VEGF per mg of total retinal protein as measured by the BCA assay, *p<0.05 by one-way ANOVA with Tukey post test compared to saline controls; (B) is primary human foetal RPE (hfRPE) cells were treated with control medium (0 ng/ml) or a single dose of IL-18 (1000 ng/ml) for 1 to 72 hours, wherein VEGF concentration in the cell-free supernatants was measured at each time point, wherein rate of VEGF secretion was calculated from the slope of linear regression of VEGF concentration (pg/ml) against time (hours) (C), wherein data are presented as mean±SEM and represent a single experiment carried out in triplicate *p<0.05, ***p<0.001 by Student's t test compared to control at each time point;

[1] = system: human ocular choroidal fibroblasts (HOCFs); assay: LDH assay of HOCF cell death; conditions: HOCFs, 10, 100 or 1000 ng/ml IL-18 over 48 h
Description: FIG. 20 illustrates IL-18 activates human ocular choroidal fibroblasts and inhibits VEGF secretion, wherein (A) is human ocular choroidal fibroblast (HOCFs) treated with IL-18 at increasing doses for 8 h, wherein cells were fixed and stained with antibody targeting intermediate filament vimentin (red), Hoechst (blue) and phalloidin (green); (B) is HOCFs treated with IL-18 (100 ng/ml) over 60 mins and immunoblotted for phospho-ERK and phospo-p65 with B-actin and GAPDH as controls; (C) is HOCFs treated with IL-18 (100 ng/ml) over 24 h as indicated, wherein cells were analysed for VEGF expression by qPCR (D) is HOCFs treated with 10, 100 or 1000 ng/ml of IL-18 as indicated over 48 h and cell death was analysed by LDH assay;

[2] = system: primary human foetal RPE (hfRPE) cells; assay: Scratch assay in hfRPE cultures; conditions: IL-18 10-1000 ng/ml, up to 18 hours
Description: FIG. 19 illustrates IL-18 induces fibroblast-like cells to migrate to close a wound created in human Retinal Pigment Epithelium monolayer in vitro, wherein primary human foetal RPE (hfRPE) cells were treated with control medium (0 ng/ml) or increasing doses of IL-18 (10-1000 ng/ml) immediately after making a scratch through the centre of the well, wherein microscopy images were acquired at the same location at baseline (0 hours) and then every 2 hours until 18 hours, representative images for each treatment group are shown, wherein cells were stained with DAPI to show the nuclei, and phalloidin to show F-actin, wherein Brightfield images (phase) are also shown;

With “IL-18: recombinant human IL-18 (SB-485232; GSK)” the “VEGF concentration in cell-free supernatants” value (VEGF) was “decreased VEGF concentration at (almost) all time points examined”, the “overall rate of VEGF secretion” value (VEGF) was “significantly slowed down the overall rate of VEGF secretion” and the “HOCF death (LDH assay)” value [1] was “does not cause HOCF death and may enhance HOCF viability”. For the same substance, the “cell migration into wound in hfRPE monolayer” value [2] was “appearance of fibroblast-like cells that migrated across the wound”.
